Experimental data as given in the METLIN SMRT retention time set (Domingo-Almenara et al. 2019).

Assay: gradient 5% acetonitrile 3 min, to 50% in 2 min, to 85% in 15 min, held 3 min, 100 µL/min
Conditions: column: Zorbax Extend-C18 2.1 x 50 mm; eluents: water / acetonitrile, 0.1% formic acid
Method in brief: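 Retention times of pure standards were taken from adduct peaks that were selected by computer and manually inspected. Over 3 months, mixtures of ~100 molecules were run by HPLC–quadrupole time-of-flight mass spectrometry in positive and negative ionization mode. The Zorbax Extend-C18 column (2.1 × 50 mm, 1.8 μm) ran at 100 μL/min in water and acetonitrile, each containing 0.1% formic acid, with 40 μL dead volume and 900 μL dwell volume.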

Row | Structure (SMILES) | RP-LC retention time [s]
1 | Cn1cc(-c2ccncc2)cc1C(=O)N1CCN(c2ccccc2)CC1 | 624
2 | CCOC(=O)c1c(C)[nH]c(C(=O)N2CCCC(C(=O)NCc3ccc(OC)cc3)C2)c1C (configuration not stated) | 780
3 | COc1ccc(OC)c(NC(=O)N2CCC(N3CCN(Cc4ccccc4)C3=O)CC2)c1 | 828
4 | COC(=O)c1ccc(NC(=O)c2[nH]c3cc(C)sc3c2CN(C)C)cc1 | 670
5 | CCOc1ccc(NS(=O)(=O)c2cc(-c3cc(C(F)(F)F)on3)sc2C)cc1 | 1120
6 | CCOc1ccc(Nc2c(C(=O)N3CCC(C)CC3)cnc3nc(C)ccc23)cc1 | 661
7 | COc1ccc(S(=O)(=O)N2CCC(CN3CCC(C)CC3)CC2)cc1Cl | 692
8 | CCC(C)C(=O)N1CCN(c2ncccc2-c2nnc(C3CC3)o2)CC1 (configuration not stated) | 733
9 | CCOC(=O)CSc1nnc(NC(=O)C2CC(=O)N(c3ccc(F)cc3)C2)s1 (configuration not stated) | 712
10 | CCc1nc(-c2csc(S(=O)(=O)N3CCC(C(=O)NC4CC4)CC3)c2)no1 | 766
11 | CCCN(C)c1nccn2c(=O)n(CC(=O)Nc3cccc(C)c3)nc12 | 687
12 | COc1ccc(CNC(=O)CN2CCN(Cc3ccccc3C)C(=O)C2=O)cc1 | 715
13 | COc1ccc(CN2C[C@@H](CO)[C@H](c3ccncc3)C2)cc1OC | 592
14 | Cc1ccc(Nc2c(-c3cccc(Cl)c3)nc3ccc(Cl)cn23)cc1 | 1080
15 | O=C(c1ccsc1)N1CCC2(CC1)NCc1ccccc1-n1ccnc12 | 588
16 | CCc1nc(-c2csc(S(=O)(=O)N3CCCC(C(=O)Nc4cccc(Cl)c4C)C3)c2)no1 (configuration not stated) | 1080
17 | CC1=NS(=O)(=O)N(C)C=C1C(=O)OCc1ccccc1C | 616
18 | O=C1CC2(CCCC2)CC(=O)N1CCCCNCC1COc2ccccc2O1 (configuration not stated) | 758
19 | CCOC(=O)N1CCC2(CC1)OC(=O)C(C)=C2C(=O)Nc1ccc(F)cc1F | 840
20 | O=C(C1CCCO1)N1CCCN(Cc2nc(-c3ccc(Cl)cc3)no2)CC1 (configuration not stated) | 706
21 | O=C(Cc1csc(Nc2cccc(C(F)(F)F)c2)n1)NCc1cccs1 | 886
22 | Cc1ccc2nc(C(=O)NCc3ccccc3C)cn2c1 | 686
23 | CCCNS(=O)(=O)c1cc(-c2cc(C(F)(F)F)on2)sc1C | 1090

Row | Structure (SMILES) | RP-LC retention time [s]
24 | CCCCC(=O)Nc1ccc2nc(N3CCN(c4ccc(OC)cc4)CC3)cc(C(=O)O)c2c1 | 673
25 | CCOCCCNC(=O)c1c2c(cn(-c3ccc(Cl)cc3)c1=O)C(=O)CC(C)(C)C2 | 931
26 | Cc1nnc(-c2ccc3ccn(CC(=O)NC(C)(C)C)c3c2)o1 | 718
27 | COc1ccc(Cl)cc1C(=O)N1CCN(c2cc(-c3cccs3)[nH]n2)CC1 | 812
28 | COc1ccc(Cn2cc(C(=O)O)nn2)cc1F | 641
29 | O=[N+]([O-])c1cccc(C2Oc3ccccc3C3CC(c4cccnc4)=NN32)c1 (configuration not stated) | 790
30 | O=C(C1=CN(c2ccc(Cl)cc2)c2cc(Cl)ccc2S1(=O)=O)N1CCOCC1 | 875
31 | Cc1noc2nc(C)n(CC(=O)NCc3ccc(Cl)cc3)c(=O)c12 | 783
32 | CN(CCc1ccc(Cl)c(Cl)c1)[C@@H]1CCCC[C@@H]1N1CCCC1 | 956
33 | COc1ccc(C(=O)NC2CCN(c3cc(-c4cccs4)[nH]n3)C2)c(OC)c1 (configuration not stated) | 724
34 | CCCS(=O)(=O)NCCn1c(C)cnc1-c1ccccc1 | 566
35 | Cn1c(=O)n(C)c2cc(CNCCc3ccc(Cl)cc3Cl)ccc21 | 653
36 | CSc1cccc(NC(=O)CSc2nccc(N3CCN(c4cc(C)ccc4C)CC3)n2)c1 | 938
37 | CCN1CCCC1CN(CCC(=O)N1CCNCC1)C(=O)c1ccc(C(F)(F)F)cc1 (configuration not stated) | 569
38 | CCOC(=O)N1CCC(Nc2c(N3CCN(c4ccccn4)CC3)c(=O)c2=O)CC1 | 572
39 | CC1CCN(S(=O)(=O)c2nn(C)cc2C(=O)NCc2ccc3c(c2)OCO3)CC1 | 832
40 | COC(=O)C1=C(C)NC2=C(C(=O)c3ccccc32)C1c1cccs1 (configuration not stated) | 918
41 | c1ccc(-c2nc3cc(-c4noc(-c5ccc6nc[nH]c6c5)n4)ccc3o2)cc1 | 888
42 | O=C(NCC1CCCO1)c1cn(-c2cc(N3CCSCC3)ncn2)cn1 (configuration not stated) | 717
43 | CCCCn1nc2c(S(=O)(=O)N3CCc4ccccc4C3)cccn2c1=O | 914
44 | O=C(CCc1c(-c2ccc(F)cc2)nc2ccccn12)Nc1cccc(Br)c1 | 730
45 | Cc1sc(-c2cc(C(F)(F)F)on2)cc1S(=O)(=O)NCCc1cccs1 | 1140
46 | COc1ccc(CSc2ncn[nH]2)cc1 | 630

Row | Structure (SMILES) | RP-LC retention time [s]
47 | O=S(=O)(c1ccc(Cl)c(-c2nnc(-c3ccccc3)o2)c1)N1CCCCC1 | 1130
48 | COC(=O)CNC(=O)Nc1ccc2nc(-c3ccccc3)cc(OC)c2c1 | 629
49 | O=C(Nc1ccccc1Cl)c1cn(CC2CCCO2)cc2c(=O)n(-c3ccccc3)nc1-2 (configuration not stated) | 1050
50 | CCOc1ccccc1NS(=O)(=O)c1c(C(=O)OC)sc2cccc(F)c12 | 974
51 | CCOC(=O)c1cc2c([nH]c1=O)CC(c1cccc(Cl)c1)CC2=O (configuration not stated) | 770
52 | O=C(Nc1cccnc1)C1CCCN(c2nnc3ccc(Cl)cn23)C1 (configuration not stated) | 567
53 | Cc1nc(-c2ccccc2)cc2nn(CC(=O)NCc3ccccc3)c(=O)n12 | 873
54 | Cn1nc(C(=O)N2CCOCC2)c2c1CCN(C(=O)Nc1ccc(F)cc1F)C2 | 653
55 | COC(=O)C(C)NC(=O)NCc1cccn1Cc1cccc(C)c1 (configuration not stated) | 827
56 | COc1ccc(OC)c(S(=O)(=O)N2C[C@@H](F)C[C@H]2C(=O)N2CCc3ccccc3C2)c1 | 829
57 | C[C@@H]1CCO[C@H]2Cn3cc(C(=O)NCc4ccc(F)cc4F)c(=O)c(O)c3C(=O)N12 | 808
58 | CC1=NS(=O)(=O)N(C)C=C1C(=O)OCc1nc(-c2ccc(Cl)cc2)no1 | 1010
59 | CCOc1ccc(CNC(=O)C2CCN(Cc3cn(CC)c4ccc(OC)cc34)CC2)cc1 | 723
60 | Cc1cc(OCC(=O)NCCn2nc(-c3cccnc3)ccc2=O)ccc1Cl | 617
61 | Cc1cccc(-c2noc(C3CCCN3S(=O)(=O)c3ccc(C)c(Cl)c3)n2)c1 (configuration not stated) | 1270
62 | Cn1nc2n(c1=O)CCN(C(=O)c1ccc3c(c1)OCO3)CC2 | 610
63 | Cn1nc2c(c1NC(=O)COc1ccc(Cl)cc1Cl)CCC2 | 815
64 | Cc1cc2c(F)c(Oc3ncnn4cc(OC[C@@H](C)O)c(C)c34)ccc2[nH]1 | 880
65 | CCOc1ccccc1NC(=O)N1CCCC1c1cc(C)on1 (configuration not stated) | 870
66 | COc1cc(CNC(=O)c2cc(C(C)(C)C)n3nccc3n2)cc(OC)c1 | 1110
67 | O=C(COc1ccc(NC(=O)C2CC2)cn1)NCc1cc(F)cc(F)c1 | 754
